Data taken from patent US20240166652A1, “MODULATORS OF THE INTEGRATED STRESS PATHWAY” (Calico Life Sciences LLC, priority 2017, published 2024).
pEC50: −log10 of the molar value.

Test system: ATF4 luciferase reporter in HEK293T cells
Experiment: ATF4-Luc assay (ATF4 luciferase reporter, tunicamycin-treated HEK293T cells)
Assay type: cell-based, human
Conditions: HEK293T cells carrying the ATF4 luciferase reporter, 1 μg/mL tunicamycin, 7 hours

Row | SMILES | pEC50 (Homo sapiens, HEK-293T) | pEC50
1 | O=C(COc1ccc(Cl)c(F)c1)NC12CC(NC(=O)C(CCO)Oc3ccc(Cl)cc3)(C1)C2 (centres unmarked) [Compound 827, N-{3-[2-(4-chloro-3-fluorophenoxy)acetamido]bicyclo[1.1.1]pentan-1-yl}-2-(4-chlorophenoxy)-4-hydroxybutanamide] | 6.60 to 7.30 | 
2 | O=C(COc1ccc(Cl)c(F)c1)NC12CC(NCC(=O)c3ccc(Cl)c(F)c3)(C1)C2 [Compound 291, 2-(4-chloro-3-fluorophenoxy)-N-(3-{[2-(4-chloro-3-fluorophenyl)-2-oxoethyl]amino}bicyclo[1.1.1]pentan-1-yl)acetamide] | 6.30 to 6.60 | 
3 | Cc1ccc(CC(=O)NC23CC(NC(=O)COc4ccc(Cl)c(F)c4)(C2)C3)cn1 [Compound 210, 2-(4-chloro-3-fluorophenoxy)-N-{3-[2-(6-methylpyridin-3-yl)acetamido]bicyclo[1.1.1]pentan-1-yl}acetamide] | < 5.70 | 
4 | O=C(COc1ccc(Cl)c(F)c1)NC12CC(NS(=O)(=O)Cc3cccc(C(F)(F)F)c3)(C1)C2 [Compound 428, 2-(4-chloro-3-fluorophenoxy)-N-[3-({[3-(trifluoromethyl)phenyl]methanesulfonyl}amino)bicyclo[1.1.1]pentan-1-yl]acetamide] | 5.70 to 6.30 | 
5 | CCOc1ccc(OCC(=O)NC23CCC(NC(=O)COc4ccc(Cl)c(F)c4)(CC2)C[C@@H]3O)cc1 [Compound 508, 2-(4-chloro-3-fluorophenoxy)-N-{(3S)-4-[2-(4-ethoxyphenoxy)acetamido]-3-hydroxybicyclo[2.2.2]octan-1-yl}acetamide] | 7.30 to 8.00 | 
6 | Cc1cccc(CS(=O)(=O)NC23CC(NC(=O)COc4ccc(Cl)c(F)c4)(C2)C3)c1 [Compound 486, 2-(4-chloro-3-fluorophenoxy)-N-(3-{[(3-methylphenyl)methanesulfonyl]amino}bicyclo[1.1.1]pentan-1-yl)acetamide] | < 5.70 | 
7 | O=C(COc1ccc(Cl)c(F)c1)NC12CCC(NS(=O)(=O)Cc3ccc(C(F)(F)F)cc3)(CC1)[C@@H](O)C2 [Compound 429, 2-(4-chloro-3-fluorophenoxy)-N-[(3S)-3-hydroxy-4-({[4-(trifluoromethyl)phenyl]methanesulfonyl}amino)bicyclo[2.2.2]octan-1-yl]acetamide] | 6.60 to 7.30 | 
8 | N#CC1CC2(NC(=O)COc3ccc(Cl)c(F)c3)CCC1(NC(=O)COc1ccc(Cl)c(F)c1)CC2 (centres unmarked) [Compound 387, N,N′-(2-cyanobicyclo[2.2.2]octane-1,4-diyl)bis[2-(4-chloro-3-fluorophenoxy)acetamide]] | > 8.00 | 
9 | Cc1n[nH]c2cc(OCC(=O)NC34CC(NC(=O)COc5ccc(Cl)c(F)c5)(C3)C4)ccc12 [Compound 184, 2-(4-chloro-3-fluorophenoxy)-N-(3-{2-[(3-methyl-1H-indazol-6-yl)oxy]acetamido}bicyclo[1.1.1]pentan-1-yl)acetamide] | 6.60 to 7.30 | 
10 | O=C(COc1ccc(Cl)c(Cl)c1)NC12CCC(NC(=O)COc3ccc(Cl)c(Cl)c3)(CC1)[C@@H](O)C2 [Compound 538, N,N′-[(2S)-2-hydroxybicyclo[2.2.2]octane-1,4-diyl]bis[2-(3,4-dichlorophenoxy)acetamide]] | > 8.00 | 
11 | Cn1cc(OCC(=O)NC23CCC(NC(=O)COc4ccccn4)(CC2)C[C@@H]3O)cn1 [Compound 661, N-[(2S)-2-hydroxy-4-{2-[(pyridin-2-yl)oxy]acetamido}bicyclo[2.2.2]octan-1-yl]-2-[(1-methyl-1H-pyrazol-4-yl)oxy]acetamide] | < 5.70 | 
12 | O=C(COc1ccc(Cl)c(F)c1)N[C@@H]1[C@@H]2CC[C@@](NC(=O)COc3ccc(Cl)c(F)c3)(C2)C[C@H]1O (racemic) [Compound 625, rac-N,N′-[(1R,3R,4R,5R)-3-hydroxybicyclo[3.2.1]octane-1,4-diyl]bis[2-(4-chloro-3-fluorophenoxy)acetamide]] | > 8.00 | 
13 | Cc1ccc(OCC(=O)NC23CCC(NC(=O)COc4ccc(Cl)c(F)c4)(CC2)[C@@H](O)C3)cc1 [Compound 475, 2-(4-chloro-3-fluorophenoxy)-N-{(2S)-2-hydroxy-4-[2-(4-methylphenoxy)acetamido]bicyclo[2.2.2]octan-1-yl}acetamide] | > 8.00 | 
14 | O=C(/C=C/c1ccc(Cl)c(Cl)c1)NC12CC(NC(=O)COc3ccc(Cl)c(F)c3)(C1)C2 [Compound 348, (2E)-N-{3-[2-(4-chloro-3-fluorophenoxy)acetamido]bicyclo[1.1.1]pentan-1-yl}-3-(3,4-dichlorophenyl)prop-2-enamide] | 7.30 to 8.00 | 
15 | O=C(COc1ccc(Cl)c(F)c1)NC12CCC(NC(=O)COc3cnc(C(F)F)cn3)(CC1)[C@@H](O)C2 [Compound 382, 2-(4-chloro-3-fluorophenoxy)-N-[(3S)-4-(2-{[5-(difluoromethyl)pyrazin-2-yl]oxy}acetamido)-3-hydroxybicyclo[2.2.2]octan-1-yl]acetamide] | < 5.70 | 
16 | O=C(COc1cc(C(F)(F)F)nc(C(F)(F)F)c1)NC12CC(NC(=O)COc3ccc(Cl)c(F)c3)(C1)C2 [Compound 296, 2-{[2,6-bis(trifluoromethyl)pyridin-4-yl]oxy}-N-{3-[2-(4-chloro-3-fluorophenoxy)acetamido]bicyclo[1.1.1]pentan-1-yl}acetamide] | < 5.70 | 

Row | SMILES | pEC50 (Homo sapiens, HEK-293T) | pEC50
17 | CC(C)c1cc(OCC(=O)NC23CCC(NC(=O)COc4ccc(Cl)c(F)c4)(CC2)C[C@@H]3O)cc(C(C)C)c1 [Compound 496, 2-(4-chloro-3-fluorophenoxy)-N-[(3S)-4-{2-[3,5-di(propan-2-yl)phenoxy]acetamido}-3-hydroxybicyclo[2.2.2]octan-1-yl]acetamide] | 5.70 to 6.30 | 
18 | O=C(COc1ccc(Cl)c(F)c1)NC12CCC(NC(=O)COc3cccc(Cl)c3)(CC1)[C@@H](O)C2 [Compound 660, 2-(4-chloro-3-fluorophenoxy)-N-{(3S)-4-[2-(3-chlorophenoxy)acetamido]-3-hydroxybicyclo[2.2.2]octan-1-yl}acetamide] | > 8.00 | 
19 | O=C(COc1ccc(Cl)c(F)c1)N[C@@H]1C[C@@H]2C[C@H]1C[C@H]2NC(=O)COc1ccc(Cl)c(F)c1 (single isomer, unassigned) [Compound 621] | > 8.00 | 
20 | CC(C)c1cc(OCC(=O)NC23CCC(NC(=O)COc4ccc(Cl)c(F)c4)(CC2)[C@@H](O)C3)cc(C(C)C)c1 [Compound 478, 2-(4-chloro-3-fluorophenoxy)-N-[(2S)-4-{2-[3,5-di(propan-2-yl)phenoxy]acetamido}-2-hydroxybicyclo[2.2.2]octan-1-yl]acetamide] | < 5.70 | 
21 | O=C(COc1ccc(Cl)c(F)c1)N[C@@H]1C[C@H]2CC[C@@H](C1)[C@H]2NC(=O)COc1ccc(Cl)c(F)c1 [Compound 595, N,N′-[(1R,3s,5S,8r)-bicyclo[3.2.1]octane-3,8-diyl]bis[2-(4-chloro-3-fluorophenoxy)acetamide]] | < 5.70 | 
22 | O=C(COc1ccc(Cl)cc1)NC12CCC(NC(=O)COc3ccc(Cl)cc3)(CC1)C2 [Compound 527, N,N′-(bicyclo[2.2.1]heptane-1,4-diyl)bis[2-(4-chlorophenoxy)acetamide]] | 7.30 to 8.00 | 
23 | O=C(COc1ccc(Cl)c(F)c1)NC12CC(NC(=O)Cc3noc4ccccc34)(C1)C2 [Compound 360, 2-(1,2-benzoxazol-3-yl)-N-{3-[2-(4-chloro-3-fluorophenoxy)acetamido]bicyclo[1.1.1]pentan-1-yl}acetamide] | < 5.70 | 
24 | O=C(COc1ccc(Cl)c(F)c1)NC12CC(NC(=O)COc3ccc(Cl)c(Cl)c3)(C1)C2 [Compound 121, 2-(4-chloro-3-fluorophenoxy)-N-{3-[2-(3,4-dichlorophenoxy)acetamido]-bicyclo[1.1.1]pentan-1-yl}acetamide] | > 8.00 | 
25 | O=C(COc1ccc(Cl)c(F)c1)NC12CCC(NC(=O)COc3ccc(C(F)(F)F)nc3)(CC1)C(F)C2 (single isomer, unassigned) [Compound 373] |  | 6.60 to 7.30
26 | O=C(COc1ccc(Cl)c(F)c1)NC12CCC(NC(=O)COc3ccc(Cl)c(F)c3)(CC1)C(CCO)C2 (centres unmarked) [Compound 643, N,N′-[2-(2-hydroxyethyl)bicyclo[2.2.2]octane-1,4-diyl]bis[2-(4-chloro-3-fluorophenoxy)acetamide]] | > 8.00 | 
27 | O=C(COc1ccc(Cl)c(F)c1)NC12CC(NC(=O)COc3ccc4cn[nH]c4c3)(C1)C2 [Compound 108, 2-(4-chloro-3-fluorophenoxy)-N-(3-{2-[(1H-indazol-6-yl)oxy]acetamido}-bicyclo[1.1.1]pentan-1-yl)acetamide] | 7.30 to 8.00 | 
28 | CN(C)c1ccc(CC(=O)NC23CCC(NC(=O)COc4ccc(Cl)c(F)c4)(CC2)CC3O)cc1 (centres unmarked) [Compound 320, 2-(4-chloro-3-fluorophenoxy)-N-(4-{2-[4-(dimethylamino)phenyl]acetamido}-3-hydroxybicyclo[2.2.2]octan-1-yl)acetamide] | 5.70 to 6.30 | 
29 | Cc1ccc(OCC(=O)NC23CCC(NC(=O)COc4ccc(F)c(F)c4)(CC2)[C@@H](O)C3)cc1F [Compound 734, 2-(3,4-difluorophenoxy)-N-{(2S)-4-[2-(3-fluoro-4-methylphenoxy)acetamido]-2-hydroxybicyclo[2.2.2]octan-1-yl}acetamide] | > 8.00 | 
30 | CS(=O)(=O)c1ccc(OCC(=O)NC23CCC(NC(=O)COc4ccc5c(c4)OC(F)(F)O5)(CC2)[C@@H](O)C3)cc1F [Compound 766, 2-[(2,2-difluoro-2H-1,3-benzodioxol-5-yl)oxy]-N-[(2S)-4-{2-[3-fluoro-4-(methanesulfonyl)phenoxy]acetamido}-2-hydroxybicyclo[2.2.2]octan-1-yl]acetamide] | 6.60 to 7.30 | 
31 | Cc1cccc(OCC(=O)NC23CCC(NC(=O)COc4ccc(Cl)c(F)c4)(CC2)[C@@H](O)C3)c1 [Compound 467, 2-(4-chloro-3-fluorophenoxy)-N-{(2S)-2-hydroxy-4-[2-(3-methylphenoxy)acetamido]bicyclo[2.2.2]octan-1-yl}acetamide] | > 8.00 | 
32 | O=C(COc1ccc(Cl)c(F)c1)NC12CCC(NC(=O)COc3ccc(Cl)c(F)c3)(CC1)[C@@H](C(=O)O)C2 [Compound 558, (2S)-1,4-bis[2-(4-chloro-3-fluorophenoxy)acetamido]bicyclo[2.2.2]octane-2-carboxylic Acid] | 5.70 to 6.30 | 
